Values of other authors in patent US20230181510A1, “COMPOSITION AND METHODS OF RETINOIC ACID” (priority 2020, published 2023).

Legend:
collagen = conditions: topical treatment
human skin = conditions: topical stabilized treatment, human skin in vitro and in vivo

Question: With retinoic acid as the substance, how does the Collagen regeneration (collagen) read?
Answer: stimulates collagen regeneration

Question: And the “Expression of HAS genes and HA production” value (human skin)?
Answer: induce the expression of hyaluronic acid (HA) synthase (HAS) genes and HA production
